# Measurements: patent US11298363B2, “Triazolobenzazepines as vasopressin V1a receptor antagonists” (RICHTER GEDEON NYRT., priority 2017, dated 2022)
# Marks after values point to notes of the source that are not given here.
# Columns and labels:
# [1] = molecular target: human vasopressin V1a receptor (Homo sapiens, UniProt P37288); experiment: Human vasopressin V1a receptor binding assay; conditions: 1321N1 cell membranes, [3H]vasopressin; read-out: Ki (nM) on hV1a cell line
# Method in brief: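 Ki values come from IC50 via Cheng-Prusoff (KD from prior Scatchard), averaged over at least two independent runs. Human V1a membranes were incubated with radioligand 60 minutes at 27° C., bound ligand collected by filtration; (Arg^8)-vasopressin at 1.2×10^−6 M defined non-specific binding.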
# [2] = molecular target: mouse vasopressin V1a receptor (Mus musculus, UniProt Q62463); experiment: Mouse vasopressin V1a receptor binding assay; conditions: 1321N1 cell membranes; read-out: Ki (nM) on mV1a cell line
# Text: Mouse Vasopressin V1a Receptor Binding Assay Cells and Radioligand
# The immortalized 1321N1 cell line (B9/1321N1 clone) constitutively and stably expressing Mouse vasopressin V1a receptor vasopressin (8-L-Arginine), [Phenylalanyl-3,4,5-^3H(N)] labelled compound (Perkin Elmer Life and Analytical Sciences) as radioligand were used to determine the affinity of the prepared compounds.
# Membrane-preparation: Membrane preparation of immortalized 1321N1 cells expressing the propagated mouse Vasopressin V1a receptor was made according to Jarvis's method (Jarvis et al., J Pharmacol Exp Ther […], 310:407-16). Cells were suspended in preparative buffer (50 mM Tris, 1 mM EDTA, 0.1 mM PMSF) and homogenized with glass homogenizing potter. To separate the raw membrane fraction two consecutive centrifugation procedures (40,000 g for 25 minutes at 4° C.) were executed, then the membrane was taken into the preparatory buffer during a final washing step, it was divided into aliquots which were stored at −80° C. until the time of measurement.
# The protein content of the prepared membrane was determined according to Lowry's method using standard dilution line of bovine serum albumin (BSA) (Lowry et al., J Biol Chem 1951, 193:265-75).
# To determine the final affinity value, the results of at least two independent experiments were taken into account.
# Non-specific binding values were determined in the presence of an unlabeled 1.2×10^−6 M (Arg^8)-vasopressin. Samples were incubated in a total volume of 0.33 ml for 60 minutes at 27° C. Membrane-bound and free ligands were separated by filtration through a 0.5% polyethyleneimine-impregnated UniFilter® GF/B™ After drying the filter plates, 40 μl Microscint-20 (Packard) scintillation cocktail was added to the samples. Finally, radioactivity was measured using MicroBeta^2 Microplate Counter (Perkin Elmer).
# The radioligand clamping ability of a substance is determined in at least two independent experiments. Specific radioligand binding can be defined as the difference between total and non-specific binding in the presence of a saturation amount of the unlabeled ligand or different concentrations of the substance to be tested. The results are given as a percentage of inhibition of the specific binding achieved in the presence of the substance to be tested.
# The IC50 data (i.e. the concentration of the unknown substance which displaces 50% of specific bound radioligand) is calculated from the concentration-displacement curve using the sigmoid fitting mathematical method y=(A1−A2)/(1+(x/x0)p)+A2 with Origin 7.5. software (OriginLab Corporation, Northampton, USA). During fitting, the asymptotes are not fixed. The Ki values (inhibition constant) are given with Cheng-Prusoff equation Ki=IC50/[1+(L/KD)] wherein [L] is the radioligand concentration used in the experiment and [KD] is the affinity of the radioactively labelled ligand for the given receptor. The KD is determined beforehand using the Scatchard curve.
# mouse V1a receptor = mouse V1a receptor (Mus musculus, UniProt Q62463); experiment: Functional V1a in vivo test: inhibition of oxytocin-induced scratching behaviour; conditions: mice
# Method in brief: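 Male NMRI mice received test substance or vehicle, then oxytocin 0.3 mg/kg s.c. Scratching was recorded by LABORAS after 1 h cage habituation. Inhibition was expressed as % between the saline (0%) and vehicle-plus-oxytocin (100%) group means, analysed by ANOVA with Tukey test.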
# Chain of mouse V1a receptor (Q62463 whole entry): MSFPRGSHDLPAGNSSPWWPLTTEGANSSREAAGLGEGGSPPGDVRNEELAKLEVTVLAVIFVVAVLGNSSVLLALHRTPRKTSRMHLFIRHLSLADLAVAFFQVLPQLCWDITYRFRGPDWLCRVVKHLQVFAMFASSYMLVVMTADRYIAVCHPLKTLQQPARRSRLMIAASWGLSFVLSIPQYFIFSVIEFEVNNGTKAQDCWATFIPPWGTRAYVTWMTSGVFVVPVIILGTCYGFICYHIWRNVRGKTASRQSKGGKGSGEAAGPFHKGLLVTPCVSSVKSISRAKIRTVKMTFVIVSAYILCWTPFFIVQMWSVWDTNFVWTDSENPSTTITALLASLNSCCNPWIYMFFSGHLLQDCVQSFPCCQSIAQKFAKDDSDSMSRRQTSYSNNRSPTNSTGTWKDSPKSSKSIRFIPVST
# Chain of mouse vasopressin V1a receptor (Q62463 whole entry): as above
# Chain of human vasopressin V1a receptor (P37288 whole entry): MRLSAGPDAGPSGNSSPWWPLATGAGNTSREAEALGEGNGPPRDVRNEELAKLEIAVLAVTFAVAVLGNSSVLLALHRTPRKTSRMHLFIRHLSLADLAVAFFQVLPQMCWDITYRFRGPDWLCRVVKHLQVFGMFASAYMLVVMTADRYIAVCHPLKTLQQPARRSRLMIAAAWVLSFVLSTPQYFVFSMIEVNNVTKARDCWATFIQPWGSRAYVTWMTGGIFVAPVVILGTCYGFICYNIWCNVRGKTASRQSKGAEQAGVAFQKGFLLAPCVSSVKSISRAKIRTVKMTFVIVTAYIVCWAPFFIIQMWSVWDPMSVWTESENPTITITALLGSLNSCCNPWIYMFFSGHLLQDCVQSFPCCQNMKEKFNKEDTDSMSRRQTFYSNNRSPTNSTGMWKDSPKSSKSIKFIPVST
SMILES,Ki [1],Ki [2],inhibition (%) of oxytocin-induced scratching behaviour response (mouse V1a receptor; 10 mg/kg p.o. pretreatment),inhibition (%) of oxytocin-induced scratching behaviour response (mouse V1a receptor; after i.p. treatment (table title: 10 mg/kg))
"Brc1ccc2c(c1)CC1(Cc3nnc([C@H]4CC[C@H](Oc5ccccn5)CC4)n3-2)OCCO1 [Example 62, 8′-bromo-1′-[trans-4-(pyridin-2-yloxy)cyclohexyl]-4′H,6′H-spiro[1,3-dioxolane-2,5′ [1,2,4]triazolo[4,3-a][1]benzazepine]]",0.2 nM,0.6 nM,99%,
"OC1Cc2cc(Cl)ccc2-n2c(nnc2[C@H]2CC[C@H](Oc3ccccn3)CC2)C1 (stereo partly drawn) [Example 55, 8-chloro-1-[trans-4-(pyridin-2-yloxy)cyclohexyl]-5,6-dihydro-4H-[1,2,4]triazolo[4,3-a][1]benzazepin-5-ol]",0.3 nM,21 nM,91%,
"N[C@@H]1Cc2cc(Cl)ccc2-n2c(nnc2[C@H]2CC[C@H](Oc3ccccn3)CC2)C1 [Example 8, (5R)-8-chloro-1-[trans-4-(pyridin-2-yloxy)cyclohexyl]-5,6-dihydro-4H-[1,2,4]triazolo[4,3-a][1]benzazepine-5-amine]",1.3 nM,161 nM,64%,
"c1ccc(O[C@H]2CC[C@H](c3nnc4n3-c3ccccc3CC3(C4)OCCO3)CC2)nc1 [Example 63, 1′-[trans-4-(pyridin-2-yloxy)cyclohexyl]-4′H,6′H-spiro[1,3-dioxolane-2,5′-[1,2,4]triazolo[4,3-a][1]benzazepine]]",0.3 nM,13 nM,49%,
"O=C1Cc2cc(Cl)ccc2-n2c(nnc2[C@H]2CC[C@H](Oc3ccccn3)CC2)C1 [Example 54, 8-chloro-1-[trans-4-(pyrin-2-yloxy)cyclohexyl]-4H-[1,2,4]triazolo[4,3-a][1]benzazepin-5(6H)-one]",0.6 nM,43 nM,70%,

# Results, then the compound that gave them:
Ki [1],Ki [2],inhibition (%) of oxytocin-induced scratching behaviour response (mouse V1a receptor; 10 mg/kg p.o. pretreatment),inhibition (%) of oxytocin-induced scratching behaviour response (mouse V1a receptor; after i.p. treatment (table title: 10 mg/kg)),SMILES
0.3 nM,12 nM,84%,,"O[C@@H]1Cc2cc(Cl)ccc2-n2c(nnc2[C@H]2CC[C@H](Oc3ccccn3)CC2)C1 [Example 57, (5R)-8-chloro-1-[trans-4-(pyridin-2-yloxy)cyclohexyl]-5,6-dihydro-4H-[1,2,4]triazolo[4,3-a][1]benzazepin-5-ol]"
0.8 nM,31 nM,,106* %,"CC(=O)NC1Cc2cc(Cl)ccc2-n2c(nnc2[C@H]2CC[C@H](Oc3ccccn3)CC2)C1 (stereo partly drawn) [Example 9, N-{8-chloro-1-[trans-4-(pyridin-2-yloxy)cyclohexyl]-5,6-dihydro-4H-[1,2,4]triazolo[4,3-a][1]benzazepin-5-yl}acetamide]"
